Measurements reported in patent EP4714449A1, “USE OF HETEROCYCLIC COMPOUND FOR TREATING DISEASES RELATED TO RET GENETIC CHANGE AND METHOD THEREFOR” (Sichuan Kelun-Biotech Biopharmaceutical Co., Ltd., priority 2023, dated 2024).
Where “and” joins values, the source holds several entries; their conditions need not be identical. Equal entries are not always repeated. Structures can show the parent of a compound that is named as a salt.

How the values were obtained:
Ba/F3 KIF5B-RET^V804L = experiment: Proliferation of RET mutant cells (Cell Titer Glo); format: cell-based; settings: for IC50: Mus musculus, BaF3, 72 h, Ba/F3 KIFSB-RET^V804L, 3 days, read-out: Inhibition IC50 (nM) of the compounds on the proliferation of the cell
Description: (§1) Ba/F3 cells (Ba/F3 KIF5B-RET^V804E, Ba/F3 KIF5B-RET^V804L, Ba/F3 KIF5B-RET^V804M) in logarithmic phase were respectively collected and inoculated into 96-well plates, with 1000 cells/95 µl/well. […] In addition, negative control wells (without the test compound) and blank control wells (without cells) were set.
(§2) Inhibition rate % = [1 - (average signal value of compound group - average signal value of blank control) / (average signal value of negative control - average signal value of blank control)] * 100%; the inhibition rate % was fitted using the four-parameter equation "log(agonist) vs response-variable slope (four parameters)" in GraphPad Prism 6.0, and the IC50 was obtained by calculation.

Ba/F3 KIF5B-RET^V804E = experiment: Proliferation of RET mutant cells (Cell Titer Glo); format: cell-based; settings: for IC50: Mus musculus, BaF3, 72 h, 3 days, read-out: Inhibition IC50 (nM) of the compounds on the proliferation of the cell
Description: as §1, §2

Ba/F3 KIF5B-RET^V804M = experiment: Proliferation of RET mutant cells (Cell Titer Glo); format: cell-based; settings: for IC50: Mus musculus, BaF3, 72 h, 3 days, read-out: Inhibition IC50 (nM) of the compounds on the proliferation of the cell
Description: as §1, §2

Ba/F3 KIF5B-RET^G810R = experiment: Proliferation of RET mutant cells (Cell Titer Glo); format: cell-based; settings: for IC50: Mus musculus, BaF3, 72 h, 3 days, read-out: Inhibition IC50 (nM) of the compounds on the proliferation of the cell
Description: (§3) Experimental method: Ba/F3 cells (Ba/F3 KIF5B-RET^G810R, Ba/F3 KIF5B-RET^G810S, Ba/F3 KIFSB-RET^G810C) in logarithmic phase were respectively collected and inoculated into 96-well plates, with 2000 cells/95 µl/well. […] In addition, negative control wells (without the test compound) and blank control wells (without cells) were set.
as §2

Ba/F3 KIF5B-RET^G810S = experiment: Proliferation of RET mutant cells (Cell Titer Glo); format: cell-based; settings: for IC50: Mus musculus, BaF3, 72 h, 3 days, read-out: Inhibition IC50 (nM) of the compounds on the proliferation of the cell
Description: as §3, §2

Ba/F3 KIF5B-RET^G810C = experiment: Proliferation of RET mutant cells (Cell Titer Glo); format: cell-based; settings: for IC50: Mus musculus, BaF3, 72 h, 3 days, read-out: Inhibition IC50 (nM) of the compounds on the proliferation of the cell
Description: as §3, §2

RET-G810S = RET-G810S (Homo sapiens, UniProt P07949, G810S); experiment: RET inhibition experiment, HTRF KinEASE-TK kit, mutant RET-G810S enzyme; format: biochemical
Chain of RET-G810S (P07949 29-1114 G810S): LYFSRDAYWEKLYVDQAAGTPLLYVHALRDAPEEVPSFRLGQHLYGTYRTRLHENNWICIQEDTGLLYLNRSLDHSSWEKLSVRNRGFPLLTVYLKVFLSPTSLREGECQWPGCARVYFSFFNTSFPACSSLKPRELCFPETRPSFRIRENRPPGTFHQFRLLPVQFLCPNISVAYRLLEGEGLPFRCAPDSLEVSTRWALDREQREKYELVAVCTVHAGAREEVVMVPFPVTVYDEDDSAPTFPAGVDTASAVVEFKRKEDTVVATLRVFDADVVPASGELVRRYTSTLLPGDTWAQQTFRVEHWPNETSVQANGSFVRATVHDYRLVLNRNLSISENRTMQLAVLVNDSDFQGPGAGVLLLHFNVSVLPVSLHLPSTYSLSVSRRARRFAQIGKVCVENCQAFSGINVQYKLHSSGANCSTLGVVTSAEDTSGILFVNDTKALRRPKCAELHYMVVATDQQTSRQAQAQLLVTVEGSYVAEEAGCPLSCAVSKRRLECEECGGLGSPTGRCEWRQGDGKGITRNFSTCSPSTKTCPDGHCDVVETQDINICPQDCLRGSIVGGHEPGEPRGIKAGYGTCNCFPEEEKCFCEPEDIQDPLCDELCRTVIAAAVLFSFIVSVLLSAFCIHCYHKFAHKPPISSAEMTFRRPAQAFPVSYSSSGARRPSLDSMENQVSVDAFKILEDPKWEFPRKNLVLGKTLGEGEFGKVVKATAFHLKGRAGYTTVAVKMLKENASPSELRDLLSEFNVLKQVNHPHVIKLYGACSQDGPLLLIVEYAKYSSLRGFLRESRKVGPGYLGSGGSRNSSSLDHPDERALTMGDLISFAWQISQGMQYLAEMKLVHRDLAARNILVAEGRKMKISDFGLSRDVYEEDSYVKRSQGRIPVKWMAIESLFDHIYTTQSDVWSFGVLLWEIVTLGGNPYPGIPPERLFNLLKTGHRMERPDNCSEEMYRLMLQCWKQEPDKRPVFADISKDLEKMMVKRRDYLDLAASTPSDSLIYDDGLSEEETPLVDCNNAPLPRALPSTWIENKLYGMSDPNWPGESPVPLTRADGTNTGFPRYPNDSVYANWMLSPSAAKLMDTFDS

RET-G810R = RET-G810R (Homo sapiens, UniProt P07949, G810R); experiment: RET inhibition experiment, HTRF KinEASE-TK kit, mutant RET-G810R enzyme; format: biochemical
Chain of RET-G810R (P07949 29-1114 G810R): as the sequence (P07949 29-1114 G810S) above, with S782R counted along it

[1] = Safety evaluation in patients with RET-altered tumors; format: in vivo, human; settings: 109 patients with RET-altered tumors, once daily, 10-120 mg
Description: A total of 109 patients with RET-altered tumors were recruited, and compound 1-A of the present disclosure was administered once daily at six dosage levels of 10 mg, 20 mg, 40 mg, 60 mg, 90 mg, and 120 mg.

RET-G810C = RET-G810C (Homo sapiens, UniProt P07949, G810C); experiment: RET inhibition experiment, HTRF KinEASE-TK kit, mutant RET-G810C enzyme; format: biochemical
Chain of RET-G810C (P07949 29-1114 G810C): as the sequence (P07949 29-1114 G810S) above, with S782C counted along it

[2] = system: NSCLC, MTC, Pancreatic Cancer, and Ovarian Cancer; experiment: Treatment of patients with NSCLC, MTC, pancreatic cancer and ovarian cancer; format: in vivo, human; settings: 90 patients (70 NSCLC, 18 MTC, 1 pancreatic cancer, 1 ovarian cancer), once daily 40-120 mg
Description: (§4) A total of 90 patients were recruited, including 70 patients with non-small cell lung cancer (NSCLC), 18 patients with medullary thyroid carcinoma (MTC), 1 patient with pancreatic cancer, and 1 patient with ovarian cancer. Compound 1-A of the present disclosure was administered once daily at dosage levels of 40-120 mg (40 mg, 60 mg, 90 mg, and 120 mg), resulting in an objective response rate (ORR) of 60% and a disease control rate (DCR) of 94% for the 90 patients.

[3] = system: non-small cell lung cancer (NSCLC); experiment: Treatment of NSCLC patients (subgroups of the clinical study); format: in vivo, human; parameters: disease control rate (DCR) / overall central nervous system disease control rate (CNS DCR): concentration or dose not given beside the values
Description: as §4
Among the 70 NSCLC patients, there were 26 who had not been systemically pretreated, 33 who had previously been systemically pretreated (excluding first-generation selective RET inhibitors), and 11 who had been previously treated with at least first-generation selective RET inhibitor therapy.

[4] = Table 7, comparison with BLU-667 and LOXO-292
[5] = 8 NSCLC patients pretreated with first-generation selective RET inhibitors, dosed at 90 mg or 120 mg
[6] = 26 NSCLC patients not systemically pretreated
[7] = 33 NSCLC patients systemically pretreated (excluding first-generation selective RET inhibitors)

COc1ccc(CN2C3CC2CN(c2ccc(-c4cc(OCC(C)(C)O)cn5ncc(C#N)c45)cn2)C3)cn1 [LOXO-292, reference compound]
IC50 (Ba/F3 KIF5B-RET^V804L): 1330 ± 666 nM
IC50 (Ba/F3 KIF5B-RET^V804E): 460 ± 32.9 nM
IC50 (Ba/F3 KIF5B-RET^V804M): 503 ± 190 nM
IC50 (Ba/F3 KIF5B-RET^G810R): 116.3 ± 1.15 nM
IC50 (Ba/F3 KIF5B-RET^G810S): 87.83 ± 0.75 nM
IC50 (Ba/F3 KIF5B-RET^G810C): 477 ± 4.4 nM

Cc1cc(Nc2cc(C)[nH]n2)nc(-c2ccc(N3CC4CC(C3)N4Cc3ccc(-n4cc(F)cn4)nc3)nc2)n1 [Compound 1-A, Fumarate of 2-(6-(6-((6-(4-fluoro-1H-pyrazol-1-yl)pyridin-3-yl)methyl)-3,6-diazabicyclo[3.1.1]heptan-3-yl)pyridin-3-yl)-6-methyl-N-(5-methyl-1H-pyrazol-3-yl)pyrimidin-4-amine]
IC50 (RET-G810S; [4]): 2.69 ± 0.56 nM
inhibition on RET-G810S enzyme (in words) (RET-G810S; summary of Tables 3, 4, 7): remarkably inhibited
IC50 (RET-G810R; [4]): 19.6 ± 0.67 nM
inhibition on RET-G810R enzyme (in words) (RET-G810R; summary of Tables 1, 2, 7): remarkably inhibited
dose-limiting toxicities (DLT) [1]: No dose-limiting toxicities (DLT) were observed
maximum tolerated dose (MTD) [1]: nor was the maximum tolerated dose (MTD) reached
treatment-related adverse events (TRAE) of grade 1-2 and reversible [1]: 76.1%
IC50 (RET-G810C; [4]): 53.2 ± 10.7 nM
inhibition on RET-G810C enzyme (in words) (RET-G810C; summary of Tables 5, 6, 7): remarkably inhibited
disease control rate (DCR) [2]: 94%
objective response rate (ORR) [2]: 60%
inhibiting the proliferation, comparison in words (Ba/F3 KIF5B-RET^V804L; Ba/F3 KIF5B-RET^V804L): superior to BLU-667 and Loxo-292
IC50 (Ba/F3 KIF5B-RET^V804L): 66.6 ± 20.7 nM
inhibiting the proliferation, comparison in words (Ba/F3 KIF5B-RET^V804E): superior to BLU-667 and Loxo-292
IC50 (Ba/F3 KIF5B-RET^V804E): 59.8 ± 8.33 nM
inhibiting the proliferation, comparison in words (Ba/F3 KIF5B-RET^V804M): superior to BLU-667 and Loxo-292
IC50 (Ba/F3 KIF5B-RET^V804M): 25.5 ± 1.91 nM
inhibiting the proliferation, comparison in words (Ba/F3 KIF5B-RET^G810R): superior to BLU-667 and Loxo-292
IC50 (Ba/F3 KIF5B-RET^G810R): 26.3 ± 5.76 nM
inhibiting the proliferation, comparison in words (Ba/F3 KIF5B-RET^G810S): superior to BLU-667 and Loxo-292
IC50 (Ba/F3 KIF5B-RET^G810S): 20.2 ± 0.35 nM
inhibiting the proliferation, comparison in words (Ba/F3 KIF5B-RET^G810C): superior to BLU-667 and Loxo-292
IC50 (Ba/F3 KIF5B-RET^G810C): 65.3 ± 1 nM
partial response (PR), number of patients [3, 5]: 3 patients
stable disease (SD), number of patients [3, 5]: 4 patients
tumor shrinkage observed, share of patients ([3]; 8 NSCLC patients pretreated with first-generation selective RET inhibitors, dosed at 90 mg or 120 mg, 7 patients): 88%
complete response (CR), number of patients [3, 6]: 1
disease control rate (DCR) [3, 6]: 96%
partial responses (PR), number of patients [3, 6]: 20
objective response rate (ORR) ([3]; 26 NSCLC patients not systemically pretreated (21/26)): 81%
ERC1-RET fusion-positive patient achieving complete response (CR), number of patients [3, 7]: 1
disease control rate (DCR) [3, 7]: 97%
objective response rate (ORR) ([3]; 33 NSCLC patients systemically pretreated (excluding first-generation selective RET inhibitors) (23/33)): 70%
response of the NCOA4-RET fusion-positive and RELCH-RET fusion-positive patients ([3]; NSCLC patients not systemically pretreated, 1 patient each): partial responses (PR)
overall central nervous system disease control rate (CNS DCR) ([3]; NSCLC patients with brain metastasis): 100%
reductions of measurable brain lesions after treatment ([3]; six NSCLC patients with brain metastasis and measurable brain lesions, one value per patient): 100% (3×) and 69% and 47% and 17%

CO[C@]1(C(=O)N[C@@H](C)c2ccc(-n3cc(F)cn3)nc2)CC[C@H](c2nc(C)cc(Nc3cc(C)[nH]n3)n2)CC1 [BLU-667, reference compound]
IC50 (Ba/F3 KIF5B-RET^V804L): 87.1 ± 11.3 nM
IC50 (Ba/F3 KIF5B-RET^V804E): 76.2 ± 9.74 nM
IC50 (Ba/F3 KIF5B-RET^V804M): 39.5 ± 16.7 nM
IC50 (Ba/F3 KIF5B-RET^G810R): 182 ± 80 nM
IC50 (Ba/F3 KIF5B-RET^G810S): 29 ± 4.47 nM
IC50 (Ba/F3 KIF5B-RET^G810C): 146 ± 3.4 nM
